Values belong to the molecule of their own block, whether it stands above or below them. Active and inactive are the calls of the source. The rule behind the calls is not given here.
Legend:
[1] = target: T1, Lysine-specific histone demethylase 1A (Homo sapiens, UniProt O60341); experiment: Inhibition of recombinant LSD1 (unknown origin) expressed in Escherichia coli BL21(DE3) strain using H3K4me2 peptide as substrate at 10 uM incubated for 30 mins by fluorescence based analysis relative to control
[2] = target: T1, Lysine-specific histone demethylase 1A; experiment: Inhibition of recombinant LSD1 (unknown origin) expressed in Escherichia coli BL21(DE3) strain using H3K4me2 peptide as substrate incubated for 30 mins by fluorescence based analysis
[3] = target: T1, Lysine-specific histone demethylase 1A; experiment: Binding affinity to recombinant LSD1 (unknown origin) assessed as thermal stability at 4 uM by thermal shift assay
[4] = target: T1, Lysine-specific histone demethylase 1A; experiment: Inhibition of LSD1 (unknown origin) human BGC-823 cells assessed as suppression of H3K4me1 methylation measured after 5 days by Western blot analysis; format: cell-based; details: dose 1-4 µM, time 5.0 day
[5] = target: T1, Lysine-specific histone demethylase 1A; experiment: Inhibition of LSD1 in human BGC-823 cells assessed as suppression of H3K4me2 methylation measured after 5 days by Western blot analysis; format: cell-based; details: dose 1-4 µM, time 5.0 day
BGC-823 [6] = experiment: Inhibition of stemness in human BGC-823 cells assessed as inhibition of CD44 expression at 1 to 4 uM measured after 5 days by Western blot analysis; format: functional, cell-based; details: dose 1-4 µM, time 5.0 day
BGC-823 [7] = experiment: Inhibition of stemness in human BGC-823 cells assessed as inhibition of OCT4 expression at 1 to 4 uM measured after 5 days by Western blot analysis; format: functional, cell-based; details: dose 1-4 µM, time 5.0 day
BGC-823 [8] = experiment: Inhibition of stemness in human BGC-823 cells assessed as inhibition of SOX2 expression at 1 to 4 uM measured after 5 days by Western blot analysis; format: functional, cell-based; details: dose 1-4 µM, time 5.0 day
BGC-823 [9] = experiment: Antimigratory activity against human BGC-823 cells assessed as reduction in cell migration at 1 to 4 uM measured after 24 to 48 hrs by wound healing assay; format: functional, cell-based; details: dose 1-4 µM, time 24-48 hrs
BGC-823 [10] = experiment: Downregulation of PD-L1 level in human BGC-823 cells incubated for 5 days by Western blot analysis; format: functional, cell-based; details: dose 1-4 µM, time 5.0 day
MFC [11] = experiment: Downregulation of PD-L1 level in […] cells incubated for 5 days by Western blot analysis; format: functional, cell-based; details: dose 1-4 µM, time 5.0 day
BGC-823 [12] = experiment: Downregulation of PD-L1 mRNA level in human BGC-823 cells at 1 to 4 uM incubated for 5 days by Q-RT-PCR analysis; format: functional, cell-based; details: dose 1-4 µM, time 5.0 day
MFC [13] = experiment: Downregulation of PD-L1 mRNA level in […] cells at 1 to 4 uM incubated for 5 days by Q-RT-PCR analysis; format: functional, cell-based; details: dose 1-4 µM, time 5.0 day
MFC [14] = experiment: Antitumor activity against mouse MFC cells xenografted in 615 mouse model assessed as suppression in tumor growth administered as IG daily and measured every other day for 14 days by caliper method; format: functional; details: dose 10-40 mg/kg, time 14.0 day
MFC [15] = experiment: Antitumor activity against mouse MFC cells xenografted in 615 mouse model assessed as reduction in tumor weight at 10 to 40 mg/kg, IG administered daily and measured every other day for 14 days […]; format: functional, organism-based; details: dose 10-40 mg/kg, time 14.0 day
MFC [16] = experiment: Antitumor activity against mouse MFC cells xenografted in 615 mouse model assessed as decrease in PD-L1 level administered as IG daily and measured every other day for 14 days by Western blot analysis; format: functional; details: dose 10-40 mg/kg, time 14.0 day
MFC [17] = experiment: Antitumor activity against mouse MFC cells xenografted in 615 mouse model assessed as increase in IFN-gamma m-RNA level at 10 to 40 mg/kg, IG administered daily and measured every other day for 14 days; format: functional, organism-based; details: dose 10-40 mg/kg, time 14.0 day
MFC [18] = experiment: Antitumor activity against mouse MFC cells xenografted in 615 mouse model assessed as increase in TNF-alpha m-RNA level at 10 to 40 mg/kg, IG administered daily and measured every other day for 14 days; format: functional, organism-based; details: dose 10-40 mg/kg, time 14.0 day
MFC [19] = experiment: Antitumor activity against mouse MFC cells xenografted in 615 mouse model assessed as increase in IL-2 m-RNA level at 10 to 40 mg/kg, IG administered daily and measured every other day for 14 days; format: functional, organism-based; details: dose 10-40 mg/kg, time 14.0 day
BGC-823 [20] = experiment: Cytotoxicity against human BGC-823 cells co-cultured with T cells assessed as reduction in cell viability measured after 5 days by CCK8 method; format: functional, cell-based; details: dose 1-4 µM, time 5.0 day
[21] = Cytotoxicity against […] cells at 2 uM incubated for 5 days by CCK-8 method relative to control; format: functional; details: time 5 day
[22] = target: Programmed cell death protein 1/Programmed cell death 1 ligand 1 (Homo sapiens) (UniProt Q15116+Q9NZQ7); experiment: Inhibition of recombinant PD-1 binding to PD-L1 in human BGC-823 cells measured after 5 days by DAPI staining based confocal microscopy analysis; format: cell-based; details: dose 1-4 µM, time 5.0 day
BGC-823 [23] = experiment: Cytotoxicity against human BGC-823 cells co-cultured with T cells assessed as increase in 4-1BB level at 2 uM measured after 5 days by Q-RT-PCR method; format: functional, cell-based; details: time 5.0 day
BGC-823 [24] = experiment: Cytotoxicity against human BGC-823 cells co-cultured with T cells assessed as increase in CCR7 level at 2 uM measured after 5 days by Q-RT-PCR method; format: functional, cell-based; details: time 5.0 day
BGC-823 [25] = experiment: Cytotoxicity against human BGC-823 cells co-cultured with T cells assessed as increase in IFN-gamma level at 2 uM measured after 5 days by Q-RT-PCR method; format: functional, cell-based; details: time 5.0 day
BGC-823 [26] = experiment: Cytotoxicity against human BGC-823 cells co-cultured with T cells assessed as increase in IL-2 level at 2 uM measured after 5 days by Q-RT-PCR method; format: functional, cell-based; details: time 5.0 day
BGC-823 [27] = experiment: Cytotoxicity against human BGC-823 cells co-cultured with T cells assessed as increase in TNF-alpha level at 2 uM measured after 5 days by Q-RT-PCR method; format: functional, cell-based; details: time 5.0 day
[28] = Toxicity in 615 mouse assessed as change in body weight at 10 to 40 mg/kg, IG administered daily and measured every other day for 14 days; format: organism-based; details: in vivo, po, 336 h, dose 10-40 mg/kg, time 14 day
[29] = Toxicity in 615 mouse assessed as at 10 to 40 mg/kg, IG liver injury administered daily and measured every other day for 14 days; format: organism-based; details: in vivo, po, 336 h, dose 10-40 mg/kg, time 14 day
[30] = Toxicity in 615 mouse assessed as at 10 to 40 mg/kg, IG kidney injury administered daily and measured every other day for 14 days; format: organism-based; details: in vivo, po, 336 h, dose 10-40 mg/kg, time 14 day

- inhibition [1]: 100%
- IC50 [2]: 970 nM
Compound: Nc1ccc(Sc2c3ccccc3nc3ccccc23)cc1

- inhibition [1]: 95.3%
- IC50 [2]: 1660 nM
Compound: c1ccc2c(NN3CCCCC3)c3ccccc3nc2c1

- inhibition [1]: 100%
- IC50 [2]: 220 nM
Compound: c1ccc2c(Nc3ccc(N4CCNCC4)cc3)c3ccccc3nc2c1

- inhibition [1]: 68.1%
- IC50 [2]: 710 nM
Compound: Fc1ccc(C(c2ccc(F)cc2)N2CCN(c3ccc(Nc4c5ccccc5nc5ccccc45)cc3)CC2)cc1

- inhibition [1]: 100%
- IC50 [2]: 230 nM
Compound: COc1ccc2nc3ccccc3c(Nc3ccc(N4CCN(C)CC4)cc3)c2c1

- inhibition [1]: 100%
- IC50 [2]: 280 nM
Compound: CN1CCN(c2ccc(Nc3c4ccccc4nc4ccc(Cl)cc34)cc2)CC1

- inhibition [1]: 99.2%
- IC50 [2]: 1050 nM
Compound: c1ccc(Nc2c3ccccc3nc3ccccc23)cc1

- inhibition [1]: 25%
Compound: c1ccc2c(Nc3ccc(N4CCCCC4)cc3)c3ccccc3nc2c1

- inhibition [1]: 100%
- IC50 [2]: 140 nM
Compound: COc1ccc2c(Nc3ccc(N4CCN(C)CC4)cc3)c3ccccc3nc2c1

- inhibition [1]: 100%
- IC50 [2]: 1160 nM
Compound: COc1ccc(Nc2c3ccccc3nc3ccccc23)cc1

- inhibition [1]: 100%
- IC50 [2]: 100 nM
Compound: Cc1ccc2nc3c(C)c(C)ccc3c(Nc3ccc(N4CCN(C)CC4)cc3)c2c1

- inhibition [1]: 4.01%
Compound: NS(=O)(=O)c1ccc(Nc2c3ccccc3nc3ccccc23)cc1

- inhibition [1]: 100%
- IC50 [2]: 880 nM
Compound: COc1cc(NS(C)(=O)=O)ccc1Nc1c2ccccc2nc2ccccc12 [AMSACRINE]

Further lines, the molecule ahead of its results:

Compound: CCn1c2ccccc2c2ccc(Nc3c4ccccc4nc4ccccc34)cc21
- inhibition [1]: 97.2%
- IC50 [2]: 700 nM

Compound: CC(C)c1ccc2nc3ccccc3c(Nc3ccc(N4CCN(C)CC4)cc3)c2c1
- inhibition [1]: 100%
- IC50 [2]: 230 nM

Compound: CSc1ccc(Nc2c3ccccc3nc3ccccc23)cc1
- inhibition [1]: 79.7%
- IC50 [2]: 740 nM

Compound: Nc1ccc(Oc2c3ccccc3nc3ccccc23)cc1
- inhibition [1]: 100%
- IC50 [2]: 1720 nM

Compound: N#Cc1ccc(Nc2c3ccccc3nc3ccccc23)cc1
- inhibition [1]: 29.8%

Compound: CC(=O)Nc1ccc(Nc2c3ccccc3nc3ccccc23)cc1
- inhibition [1]: 67.8%
- IC50 [2]: 3540 nM

Compound: Cc1cc2nc3ccccc3c(Nc3ccc(N4CCN(C)CC4)cc3)c2cc1C
- inhibition [1]: 100%
- IC50 [2]: 85 nM

Compound: Cc1ccc2cc(Nc3c4ccccc4nc4ccccc34)ccc2n1
- inhibition [1]: 68.6%
- IC50 [2]: 3860 nM

Compound: CS(=O)(=O)Nc1ccc(Nc2c3ccccc3nc3ccccc23)cc1
- inhibition [1]: 100%
- IC50 [2]: 660 nM

Compound: CN1CCN(c2ccc(Nc3c4ccccc4nc4ccccc34)cc2)CC1
- inhibition [1]: 100%
- IC50 [2]: 73 nM
- Activity [3]: Active
- inhibition [4]: Dose-Dependent Effect
- inhibition [5]: Dose-Dependent Effect
- inhibition (BGC-823 [6]): Active
- inhibition (BGC-823 [7]): Active
- inhibition (BGC-823 [8]): Active
- Activity (BGC-823 [9]): Active
- Activity (BGC-823 [10]): Dose-Dependent Effect
- Activity (MFC [11]): Dose-Dependent Effect
- Activity (BGC-823 [12]): Active
- Activity (MFC [13]): Active
- Activity (MFC [14]): Dose-Dependent Effect
- Activity (MFC [15]): Active
- Activity (MFC [16]): Dose-Dependent Effect
- Activity (MFC [17]): Active
- Activity (MFC [18]): Active
- Activity (MFC [19]): Active
- Activity (BGC-823 [20]): Dose-Dependent Effect
- Activity [21]: <10%
- inhibition [22]: Dose-Dependent Effect
- Activity (BGC-823 [23]): Active
- Activity (BGC-823 [24]): Active
- Activity (BGC-823 [25]): Active
- Activity (BGC-823 [26]): Active
- Activity (BGC-823 [27]): Active
- Activity [28]: Toxic
- Activity [29]: Non-Toxic
- Activity [30]: Non-Toxic

Compound: c1ccc2c(NCCN3CCOCC3)c3ccccc3nc2c1
- inhibition [1]: 22.4%

Compound: CN1CCN(Cc2ccc(Nc3c4ccccc4nc4ccccc34)cc2)CC1
- inhibition [1]: 45.6%

Compound: Nc1ccccc1Nc1c2ccccc2nc2ccccc12
- inhibition [1]: 100%
- IC50 [2]: 8230 nM

Compound: CC(C)c1ccc(Nc2c3ccccc3nc3ccccc23)cc1
- inhibition [1]: 43.4%

Compound: O=C1COCCN1c1ccc(Nc2c3ccccc3nc3ccccc23)cc1
- inhibition [1]: 41%

Compound: Nc1ccc(Nc2c3ccccc3nc3ccccc23)cc1
- inhibition [1]: 100%
- IC50 [2]: 600 nM

Compound: c1ccc2c(Nc3ccc4c(c3)OCCO4)c3ccccc3nc2c1
- inhibition [1]: 97.7%
- IC50 [2]: 850 nM

Compound: CCN1CCN(c2ccc(Nc3c4ccccc4nc4ccccc34)cc2)CC1
- inhibition [1]: 100%
- IC50 [2]: 110 nM

Compound: CN1CCN(c2ccc(Nc3c4ccccc4nc4c(N(C)C)cccc34)cc2)CC1
- inhibition [1]: 97%
- IC50 [2]: 6030 nM

Compound: Cc1ccc(Nc2c3ccccc3nc3ccccc23)cc1
- inhibition [1]: 57.9%
- IC50 [2]: 3620 nM

Compound: Cc1cnc(NS(=O)(=O)c2ccc(Nc3c4ccccc4nc4ccccc34)cc2)o1
- inhibition [1]: 19.2%

Compound: c1ccc2c(Nc3ccc(N4CCOCC4)cc3)c3ccccc3nc2c1
- inhibition [1]: 100%
- IC50 [2]: 450 nM

Compound: COc1cccc2c(Nc3ccc(N4CCN(C)CC4)cc3)c3ccccc3nc12
- inhibition [1]: 100%
- IC50 [2]: 130 nM

Compound: c1ccc(CN2CCN(c3ccc(Nc4c5ccccc5nc5ccccc45)cc3)CC2)cc1
- inhibition [1]: 97%
- IC50 [2]: 2390 nM
